From the supplement of paper PMC10307832

These cell lines were tested with CC1CC(=O)N(C2=CN=C(N=C2N1C3CCCC3)NC4=C(C=C(C=C4)C(=O)NC5CCN(CC5)C)OC)C [NPK76-II-72-1] + Cc1nc(Nc2ncc(C(=O)Nc3c(C)cccc3Cl)s2)cc(N2CCN(CCO)CC2)n1 [Dasatinib] (partner 0.075 µM) (assay: relative viability (nuclei count vs DMSO), 5 days (fraction); higher = more cells survive). Conditions: first compound 0.01 µM.
How it was run: (§1)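 Nuclei were stained with Hoechst during a one-step fixation (final 0.05% Triton X-100, 1% formaldehyde, 1 ug/ml Hoechst) carried out 5 days after dosing, then counted on 4× images. The cells, lung cancer lines in 1536-well plates, had been dosed by pin tool the day after seeding with one drug alone or a fixed anchor-drug dose plus five library-drug doses (not always all listed) in √10 steps. Relative viability is the nuclei count in treated wells divided by that in vehicle wells, and each value is the median of duplicate plates.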

Cell Line | relative viability
BEN | 0.33
HARA | 0.254
NCI-H322M | 0.268
LCLC-97TM1 | 0.896
NCI-H2009 | 0.297
A-427 | 0.659
NCI-H441 | 0.565
NCI-H661 | 0.825
NCI-H1734 | 0.513
NCI-H460 | 0.512
NCI-H2347 | 0.309
SK-LU-1 | 0.188
NCI-H1395 | 0.433
201T | 0.574
NCI-H1915 | 0.324
HCC-827 | 0.252

Cell Line | relative viability
LXF-289 | 0.211
NCI-H23 | 0.752
NCI-H647 | 0.215
CAL-12T | 0.369
NCI-H1651 | 0.386
EPLC-272H | 0.318
NCI-H2228 | 0.367
NCI-H1355 | 0.689
NCI-H3122 | 0.796
NCI-H1437 | 0.416
NCI-H1755 | 0.377
NCI-H2023 | 0.511
HCC-15 | 0.598
NCI-H1793 | 0.328
PC-14 | 0.271
EKVX | 0.58

Same assay, conditions: first compound 0.03162 µM

Cell Line | relative viability
BEN | 0.232
HARA | 0.233
NCI-H322M | 0.241
LCLC-97TM1 | 0.917
NCI-H2009 | 0.342
A-427 | 0.822
NCI-H441 | 0.709
NCI-H661 | 0.914
NCI-H1734 | 0.493
NCI-H460 | 0.543
NCI-H2347 | 0.297
SK-LU-1 | 0.181
NCI-H1395 | 0.36
201T | 0.614
NCI-H1915 | 0.352
HCC-827 | 0.319

Cell Line | relative viability
LXF-289 | 0.199
NCI-H23 | 0.771
NCI-H647 | 0.212
CAL-12T | 0.379
NCI-H1651 | 0.46
NCI-H2228 | 0.547
NCI-H1355 | 0.627
NCI-H3122 | 0.802
NCI-H1437 | 0.388
NCI-H1755 | 0.448
NCI-H2023 | 0.63
HCC-15 | 0.637
NCI-H1793 | 0.432
PC-14 | 0.238
EKVX | 0.528

Same assay, conditions: first compound 0.1 µM

Cell Line | relative viability
BEN | 0.314
HARA | 0.168
NCI-H322M | 0.249
LCLC-97TM1 | 0.822
NCI-H2009 | 0.301
A-427 | 0.688
NCI-H441 | 0.452
NCI-H661 | 0.94
NCI-H1734 | 0.455
NCI-H460 | 0.497
NCI-H2347 | 0.348
SK-LU-1 | 0.207
NCI-H1395 | 0.424
201T | 0.52
NCI-H1915 | 0.324
HCC-827 | 0.435

Cell Line | relative viability
LXF-289 | 0.199
NCI-H23 | 0.565
NCI-H647 | 0.131
CAL-12T | 0.364
NCI-H1651 | 0.413
EPLC-272H | 0.332
NCI-H2228 | 0.495
NCI-H1355 | 0.744
NCI-H3122 | 0.76
NCI-H1437 | 0.321
NCI-H1755 | 0.429
NCI-H2023 | 0.605
HCC-15 | 0.599
NCI-H1793 | 0.412
PC-14 | 0.272
EKVX | 0.519

Same assay, conditions: first compound 0.3162 µM

Cell Line | relative viability
BEN | 0.345
HARA | 0.237
NCI-H322M | 0.234
LCLC-97TM1 | 0.785
NCI-H2009 | 0.287
A-427 | 0.674
NCI-H441 | 0.541
NCI-H661 | 0.729
NCI-H1734 | 0.437
NCI-H460 | 0.458
NCI-H2347 | 0.348
SK-LU-1 | 0.202
NCI-H1395 | 0.417
201T | 0.525
NCI-H1915 | 0.351
HCC-827 | 0.388

Cell Line | relative viability
LXF-289 | 0.218
NCI-H23 | 0.859
NCI-H647 | 0.146
CAL-12T | 0.319
NCI-H1651 | 0.429
EPLC-272H | 0.251
NCI-H2228 | 0.566
NCI-H1355 | 0.617
NCI-H3122 | 0.697
NCI-H1437 | 0.33
NCI-H1755 | 0.357
NCI-H2023 | 0.583
HCC-15 | 0.642
NCI-H1793 | 0.383
PC-14 | 0.227

Same assay, conditions: first compound 1 µM

Cell Line | relative viability
BEN | 0.324
HARA | 0.219
NCI-H322M | 0.256
LCLC-97TM1 | 0.8
NCI-H2009 | 0.317
A-427 | 0.726
NCI-H441 | 0.727
NCI-H661 | 1.12
NCI-H1734 | 0.509
NCI-H460 | 0.501
NCI-H2347 | 0.327
SK-LU-1 | 0.172
NCI-H1395 | 0.369
201T | 0.59
NCI-H1915 | 0.302
HCC-827 | 0.37

Cell Line | relative viability
LXF-289 | 0.238
NCI-H23 | 0.776
NCI-H647 | 0.169
CAL-12T | 0.391
NCI-H1651 | 0.419
EPLC-272H | 0.357
NCI-H2228 | 0.619
NCI-H1355 | 0.731
NCI-H3122 | 0.956
NCI-H1437 | 0.417
NCI-H1755 | 0.497
NCI-H2023 | 0.603
HCC-15 | 0.649
NCI-H1793 | 0.386
PC-14 | 0.293
EKVX | 0.652

The cell lines below were run with CC1CC(=O)N(C2=CN=C(N=C2N1C3CCCC3)NC4=C(C=C(C=C4)C(=O)NC5CCN(CC5)C)OC)C [NPK76-II-72-1] + O=C(CCCCCCC(=O)Nc1ccccc1)NO [Vorinostat] (partner 1 µM) in the same assay as above. Conditions: first compound 0.01 µM.
How it was run: as §1

Cell Line | relative viability
BEN | 0.61
HARA | 0.493
NCI-H322M | 0.886
LCLC-97TM1 | 0.682
NCI-H2009 | 0.696
A-427 | 0.824
NCI-H441 | 0.64
NCI-H661 | 0.772
NCI-H1734 | 0.857
NCI-H460 | 0.684
NCI-H2347 | 0.744
SK-LU-1 | 0.722
NCI-H1395 | 0.711
201T | 0.803
NCI-H1915 | 0.504
HCC-827 | 0.825

Cell Line | relative viability
LXF-289 | 0.772
NCI-H23 | 0.609
NCI-H647 | 0.575
CAL-12T | 0.532
NCI-H1651 | 0.57
EPLC-272H | 0.403
NCI-H2228 | 0.543
NCI-H1355 | 0.597
NCI-H3122 | 0.943
NCI-H1437 | 0.779
NCI-H1755 | 0.89
NCI-H2023 | 0.504
HCC-15 | 0.785
PC-14 | 0.717
EKVX | 0.634

Same assay, conditions: first compound 0.03162 µM

Cell Line | relative viability
BEN | 0.711
HARA | 0.668
NCI-H322M | 0.808
LCLC-97TM1 | 1.03
NCI-H2009 | 0.713
A-427 | 0.856
NCI-H441 | 0.839
NCI-H661 | 0.785
NCI-H1734 | 0.845
NCI-H460 | 0.799
NCI-H2347 | 0.588
SK-LU-1 | 0.77
NCI-H1395 | 0.67
201T | 0.989
NCI-H1915 | 0.537
HCC-827 | 0.9

Cell Line | relative viability
LXF-289 | 0.714
NCI-H23 | 0.657
NCI-H647 | 0.568
CAL-12T | 0.798
NCI-H1651 | 0.565
EPLC-272H | 0.4
NCI-H2228 | 0.608
NCI-H1355 | 0.613
NCI-H3122 | 0.923
NCI-H1437 | 0.907
NCI-H1755 | 0.76
NCI-H2023 | 0.655
HCC-15 | 0.914
NCI-H1793 | 0.693
PC-14 | 0.73
EKVX | 0.736

Same assay, conditions: first compound 0.1 µM

Cell Line | relative viability
BEN | 0.598
HARA | 0.564
NCI-H322M | 0.861
LCLC-97TM1 | 0.561
NCI-H2009 | 0.705
A-427 | 0.877
NCI-H441 | 0.881
NCI-H661 | 0.755
NCI-H1734 | 0.779
NCI-H460 | 0.703
NCI-H2347 | 0.656
SK-LU-1 | 0.756
NCI-H1395 | 0.642
201T | 0.93
NCI-H1915 | 0.483
HCC-827 | 0.831

Cell Line | relative viability
LXF-289 | 0.703
NCI-H23 | 0.637
NCI-H647 | 0.4
CAL-12T | 0.687
NCI-H1651 | 0.634
EPLC-272H | 0.456
NCI-H2228 | 0.587
NCI-H1355 | 0.606
NCI-H3122 | 1.05
NCI-H1437 | 0.736
NCI-H1755 | 0.928
NCI-H2023 | 0.69
HCC-15 | 0.814
NCI-H1793 | 0.809
PC-14 | 0.684
EKVX | 0.684

Same assay, conditions: first compound 0.3162 µM

Cell Line | relative viability
BEN | 0.591
HARA | 0.485
NCI-H322M | 1.01
LCLC-97TM1 | 0.61
NCI-H2009 | 0.728
A-427 | 0.855
NCI-H441 | 0.881
NCI-H661 | 0.735
NCI-H1734 | 0.764
NCI-H460 | 0.748
NCI-H2347 | 0.641
SK-LU-1 | 0.77
NCI-H1395 | 0.721
201T | 0.962
NCI-H1915 | 0.442
HCC-827 | 0.817

Cell Line | relative viability
LXF-289 | 0.655
NCI-H23 | 0.515
NCI-H647 | 0.668
CAL-12T | 0.812
NCI-H1651 | 0.557
EPLC-272H | 0.574
NCI-H2228 | 0.589
NCI-H1355 | 0.56
NCI-H3122 | 1.05
NCI-H1437 | 0.748
NCI-H1755 | 0.82
NCI-H2023 | 0.563
HCC-15 | 0.767
NCI-H1793 | 0.61
PC-14 | 0.698

Same assay, conditions: first compound 1 µM

Cell Line | relative viability
BEN | 0.636
HARA | 0.603
NCI-H322M | 0.913
LCLC-97TM1 | 0.814
NCI-H2009 | 0.77
A-427 | 0.883
NCI-H441 | 0.851
NCI-H661 | 0.795
NCI-H1734 | 0.951
NCI-H460 | 0.636
NCI-H2347 | 0.603
SK-LU-1 | 0.851
NCI-H1395 | 0.84
201T | 1.14
NCI-H1915 | 0.574
HCC-827 | 0.942

Cell Line | relative viability
LXF-289 | 0.756
NCI-H23 | 0.627
NCI-H647 | 0.725
CAL-12T | 0.688
NCI-H1651 | 0.607
EPLC-272H | 0.41
NCI-H2228 | 0.578
NCI-H1355 | 0.715
NCI-H3122 | 1.05
NCI-H1437 | 0.894
NCI-H1755 | 0.782
NCI-H2023 | 0.614
HCC-15 | 0.91
NCI-H1793 | 0.825
PC-14 | 0.807
EKVX | 0.921

The cell lines below were run with CC[C@@H]1C(=O)N(C)c2cnc(Nc3ccc(C(=O)NC4CCN(C)CC4)cc3OC)nc2N1C1CCCC1 [BI-2536] + Cc1cc(Nc2cc(N3CCN(C)CC3)nc(Sc3ccc(NC(=O)C4CC4)cc3)n2)n[nH]1 [Tozasertib] (partner 0.1 µM) in the same assay as above. Conditions: first compound 0.01 µM.
How it was run: as §1

Cell Line | relative viability
BEN | 0.524
